Laboratory results: PubChem BioAssay AID1963873 (Molecular Pharmacology Branch, DTP, NCI, 2024)

System: 276233-004-R-J1-PDC KRAS spheroids with HUVEC/MSC, viability
Experiment: Anticancer human tumor 276233-004-R-J1-PDC patient-derived colon adenocarcinoma cell line growth inhibition [KRAS2]
Conditions: for IC50: curve of first compound; for viability, T/C: stronger effect = lower value
In short: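 KRAS-mutant tumor cells were grown as spheroids with HUVEC endothelial cells and human MSCs as stroma. Targeted agents were tested alone and with KRAS pathway inhibitors. Doses started at or near clinical Cmax, or 10 microM, descending half-log.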

[1] = second compound 0.1 µM, first compound 0.0316 µM
[2] = second compound 0.1 µM, first compound 0.1 µM
[3] = second compound 0.1 µM, first compound 0.316 µM
[4] = second compound 0.1 µM, first compound 1 µM
[5] = second compound 0.1 µM, first compound 3.16 µM
[6] = second compound 0.316 µM, first compound 0.0316 µM
[7] = second compound 0.316 µM, first compound 0.1 µM
[8] = second compound 0.316 µM, first compound 0.316 µM
[9] = second compound 0.316 µM, first compound 1 µM
[10] = second compound 0.316 µM, first compound 3.16 µM
[11] = second compound 1 µM, first compound 0.0316 µM
[12] = second compound 1 µM, first compound 0.1 µM
[13] = second compound 1 µM, first compound 0.316 µM
[14] = second compound 1 µM, first compound 1 µM
[15] = second compound 1 µM, first compound 3.16 µM
[16] = second compound 3.16 µM, first compound 0.0316 µM
[17] = second compound 3.16 µM, first compound 0.1 µM
[18] = second compound 3.16 µM, first compound 0.316 µM
[19] = second compound 3.16 µM, first compound 1 µM
[20] = second compound 3.16 µM, first compound 3.16 µM
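Note: cells exposed to agents for seven days before viability read.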
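Throughout, for viability, T/C: 100% = DMSO vehicle control wells and lower values mean fewer viable cells.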

Row | SMILES | IC50 (second compound 0.1 µM) [nM] | IC50 (second compound 0.316 µM) [nM] | IC50 (second compound 1 µM) [nM] | IC50 (second compound 3.16 µM) [nM] | viability, T/C [1] [%] | viability, T/C [2] [%] | viability, T/C [3] [%] | viability, T/C [4] [%] | viability, T/C [5] [%] | viability, T/C [6] [%] | viability, T/C [7] [%] | viability, T/C [8] [%] | viability, T/C [9] [%] | viability, T/C [10] [%] | viability, T/C [11] [%] | viability, T/C [12] [%] | viability, T/C [13] [%] | viability, T/C [14] [%] | viability, T/C [15] [%] | viability, T/C [16] [%] | further results
1 | CCNC(=O)CC1N=C(c2ccc(Cl)cc2)c2cc(OC)ccc2-n2c(C)nnc21 (stereo not given) + C=CC(=O)N1CCN(c2nc(OCC3CCCN3C)nc3c2CCN(c2cccc4cccc(C)c24)C3)CC1CC#N | > 10000 | > 10000 | > 10000 | 189 | 95.1 | 81.2 | 85.6 | 60.2 | 59.5 | 94.8 | 83.1 | 83.3 | 76.2 | 65.4 | 80.5 | 66.1 | 56.2 | 57.6 | 56.6 | 60.3 | IC50 (second compound 0.0316 µM): > 10000 nM; viability, T/C (second compound 0.0316 µM, first compound 0.0316 µM): 94.8%; viability, T/C (second compound 0.0316 µM, first compound 0.1 µM): 80.9%; viability, T/C (second compound 0.0316 µM, first compound 0.316 µM): 63.6%; viability, T/C (second compound 0.0316 µM, first compound 1 µM): 57.1%; viability, T/C (second compound 0.0316 µM, first compound 3.16 µM): 68.6%; viability, T/C (second compound 0.0316 µM, first compound 10 µM): 62%; viability, T/C (second compound 0.1 µM, first compound 10 µM): 62.3%; viability, T/C (second compound 0.316 µM, first compound 10 µM): 63.6%; viability, T/C (second compound 1 µM, first compound 10 µM): 61.2%; viability, T/C [17]: 59.8%; viability, T/C [18]: 42%; viability, T/C [19]: 33.7%; viability, T/C [20]: 36.4%; viability, T/C (second compound 3.16 µM, first compound 10 µM): 38.7%
2 | CC1COCCN1c1cc(-c2ccnn2C)c2ccnc(-c3ccn[nH]3)c2n1 (stereo not given) + COc1cc2nc(C)nc(NC(C)c3cc(N)cc(C(F)(F)F)c3)c2cc1OC1CCOC1 | 1470 | 706 | 1860 | 474 | 90.3 | 75.8 | 71.4 | 54.5 | 40.6 | 86.1 | 74.2 | 58.9 | 42.6 | 48.6 | 82 | 76.9 | 64.8 | 53.6 | 46.3 | 82.6 | IC50 (second compound 10 µM): < 10 nM; viability, T/C (second compound 0.1 µM, first compound 0.01 µM): 81.3%; viability, T/C (second compound 0.316 µM, first compound 0.01 µM): 80%; viability, T/C (second compound 1 µM, first compound 0.01 µM): 94.5%; viability, T/C (second compound 3.16 µM, first compound 0.01 µM): 80.6%; viability, T/C [17]: 70%; viability, T/C [18]: 55.8%; viability, T/C [19]: 37.5%; viability, T/C [20]: 48.4%; viability, T/C (second compound 10 µM, first compound 0.01 µM): 37.4%; viability, T/C (second compound 10 µM, first compound 0.0316 µM): 46.5%; viability, T/C (second compound 10 µM, first compound 0.1 µM): 45.8%; viability, T/C (second compound 10 µM, first compound 0.316 µM): 34.1%; viability, T/C (second compound 10 µM, first compound 1 µM): 36.9%; viability, T/C (second compound 10 µM, first compound 3.16 µM): 24.8%
